# From patent US5873359A, “Methods and devices for treating pulmonary vasoconstriction and asthma” (The General Hospital Corporation, priority 1994, dated 1999)
# Where two headings read alike, the source gives them in different places.
# How the values were obtained:
# [1] = test system: severe acute respiratory failure; assay: Inhaled NO in humans with severe acute respiratory failure (preliminary); assay type: in vivo, human; details: approximately 20 ppm inhaled, up to one month, five humans
# Excerpt: It is likely that inhaled NO acts by diffusing into the vascular space adjacent to the alveoli and causing relaxation of pulmonary vascular smooth muscle, thus permitting an increase in pulmonary blood flow and gas exchange. […] By localizing delivery of NO in a gaseous form directly to the lungs, the dissolved NO can immediately exert its pharmacological effect on target vascular smooth muscle, prior to inactivation of the NO by binding to hemoglobin. At the same time, the rapid binding of NO to hemoglobin ensures that any vasodilatory action of inhaled NO is solely a local or selective effect in the blood vessels of the lung, with no concomitant vasodilation downstream in the systemic circulation.
# [2] = test system: persistent pulmonary hypertension of the newborn (PPHN); assay type: in vivo, human
# Procedure: First subject. Through compassionate use, nitric oxide was administered to an infant suffering from persistent pulmonary hypertension and congenital heart disease. As a result of prolonged ventilation, absence of a preductal arterial blood sampling site, and the existence of the atrial-ventricular (AV) canal, the patient was not included in the PPHN study mentioned above.
# The patient was a 3225 gm, full term person who had been treated with extracorporeal membrane oxygenation (ECMO) because of the severity of their congenital heart disease and profound hypoxemia. They had been taken off ECMO and was being maintained intubated and ventilated in the newborn intensive care unit. They subsequently became progressively hypoxemic, as reflected in their post-ductal pulse oximetry (POX) values. By the time they were taken to the catheterization laboratory to confirm the existence of the A-V canal and to determine if some emergent cardiac surgery was needed, they were receiving maximal medical and ventilatory life support and remained dangerously hypoxemic. Under these circumstances, we were granted consent to treat the patient with nitric oxide.
# Upon arrival to the catheterization laboratory, the patient was extremely cyanotic. They were treated with fentanyl, oxygen, hyperventilation and intravenous fluid boluses to stabilize them prior to administering NO.
# We utilized a regulator to step-down the pressure of the NO into a blender, which allowed us to adjust the relative amounts of the 800 ppm NO/N2 and 100% N2 supplies. Treating the patient with pure oxygen, we increased the flow of N2 through a flow regulator into the inspiratory circuit of the breathing cicuit until the FI O2 was 0.9. This provided a 1:10 dilution of the nitrogen gas. We then used the blender to adjust the relative amounts of N2 and […] to provide 0 to 80 ppm of NO.
# [3] = NO 80 ppm, restarted after OFF #1
structure (smiles),measurement,setting,value
"[N]=O [NO, nitric oxide]",QVA /QT (right-to-left shunt),[1],reduces both pulmonary arterial pressure and QVA /QT
same,blood oxygen levels,[1],marked increase of the patients' blood oxygen levels
same,pulmonary arterial pressure,[1],reduces both pulmonary arterial pressure and QVA /QT
same,"arterial saturation, pulse oximetry values and arterial partial pressure of oxygen",[2]; NO 20-80 ppm,"modest increase in arterial saturation, pulse oximetry values, and arterial partial pressure of oxygen"
same,effect on systemic blood pressure,[2]; NO 20-80 ppm,no adverse effect on systemic blood pressure
same,"O2 SAT, PA",[2]; NO 20 ppm,70%
same,"O2 SAT, POX (pulse oximeter), postductal",[2]; NO 20 ppm,91%
same,"O2 SAT, RA",[2]; NO 20 ppm,67%
same,"O2 SAT, postductal ART",[2]; NO 20 ppm,85%
same,"mean pressure, ART",[2]; NO 20 ppm,45 mmHg
same,"mean pressure, PA",[2]; NO 20 ppm,50 mmHg
same,"mean pressure, RA",[2]; NO 20 ppm,5 mmHg
same,"postductal arterial PO2, ART",[2]; NO 20 ppm,46 mmHg
same,"O2 SAT, PA",[2]; NO 40 ppm,74%
same,"O2 SAT, POX (pulse oximeter), postductal",[2]; NO 40 ppm,93%
same,"O2 SAT, RA",[2]; NO 40 ppm,72%
same,"O2 SAT, postductal ART",[2]; NO 40 ppm,74%
same,"mean pressure, ART",[2]; NO 40 ppm,43 mmHg
same,"mean pressure, PA",[2]; NO 40 ppm,52 mmHg
same,"mean pressure, RA",[2]; NO 40 ppm,4 mmHg
same,"postductal arterial PO2, ART",[2]; NO 40 ppm,50 mmHg
same,"O2 SAT, PA",[2]; NO 80 ppm,75%
same,"O2 SAT, RA",[2]; NO 80 ppm,74%
same,"mean pressure, ART",[2]; NO 80 ppm,47 mmHg
same,"mean pressure, PA",[2]; NO 80 ppm,53 mmHg
same,"mean pressure, RA",[2]; NO 80 ppm,5 mmHg
same,"O2 SAT, POX (pulse oximeter), postductal","[2]; NO 80 ppm, first",94%
same,"O2 SAT, postductal ART","[2]; NO 80 ppm, first",88%
same,"postductal arterial PO2, ART","[2]; NO 80 ppm, first",51 mmHg
same,"O2 SAT, POX (pulse oximeter), postductal",[2]; [3],90%
same,"O2 SAT, postductal ART",[2]; [3],85%
same,"postductal arterial PO2, ART",[2]; [3],48 mmHg
same,arterial saturation and oxygen gas tension on discontinuation,[2]; after nitric oxide was discontinued,precipitously dropped
same,oxygen saturation and blood gas tension on restart,[2]; nitric oxide restarted,succeeded in improving the oxygen saturation and blood gas tension
same,gas exchange,[2]; pulmonary hypertension and congenital heart disease,improving gas exchange
same,oxygenation level on second weaning,[2]; subsequent attempt to wean off nitric oxide,deteriorated to dangerously low levels
